Results reported in PubChem BioAssay (NCI).
In brackets after ≈: the same amount, converted by molar mass. Several values for one entry are separate records, joined by “and”; a condition that tells them apart may be missing. Equal values may be shown once.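 Grown in 96-well plates, cells were treated for 48 hours with each compound at five concentrations. Insufficient inhibition: endpoint recorded as highest concentration tested. At the GI50, growth is halved. At the TGI there is no net growth.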

Tests used:
Assay in all cases: NCI anticancer screen, dose series, 48 h
[1] = system: HCC-2998 colon
[2] = system: SN12C renal
[3] = system: RXF 393 renal
[4] = system: M19-MEL melanoma
[5] = system: LXFL 529 NSCLC
[6] = system: NCI-H23 lung
[7] = system: DLD-1 colon
[8] = system: M14 melanoma
[9] = system: HOP-18 NSCLC
[10] = system: OVCAR-4 ovarian

| Compound | TGI [1] [µM] | TGI [2] [µM] | TGI [3] [µM] | TGI [4] [µM] | TGI [5] [µM] | TGI [6] [µM] | TGI [7] [µM] | TGI [8] [µM] | TGI [9] [µM] | TGI [10] [µM] | GI50 [1] | GI50 [2] | GI50 [3] [µg/mL] | GI50 [9] [µM] | GI50 [10] | GI50 [6] | GI50 [4] [µM] | GI50 [8] [µM] | GI50 [5] [µM] |
| --- | --- | --- | --- | --- | --- | --- | --- | --- | --- | --- | --- | --- | --- | --- | --- | --- | --- | --- | --- |
| Cc1c(C(=O)/C=C/c2ccc(N(C)C)cc2)c(=O)n(-c2ccccc2)n1C | > 100 | > 100 | > 100 | > 100 | > 100 | > 100 | – | – | – | – | – | – | – | – | – | – | – | – | – |
| C[N+](C)(C)CC(=O)N/N=C(\C(=O)NC1=C(Cl)C(=O)c2ccccc2C1=O)C(C#N)c1csc(-c2ccc([N+](=O)[O-])cc2)n1 (stereo unspecified) | > 100 | > 100 | > 100 | > 100 | > 100 | > 100 | > 100 | > 100 | > 100 | > 100 | – | – | – | – | – | – | – | – | – |
| CCc1cccc(CC)c1NC(=O)C1=C(C)NC(C)=C(C(=O)Nc2c(CC)cccc2CC)C1c1ccc([N+](=O)[O-])cc1 | > 100 | > 100 | 77.6 | 69.2 | 33.1 | > 100 | > 100 | 42.5 | – | 33.8 | – | – | – | – | – | – | – | – | – |
| O=c1c2cccc3cccc(c4n1CCN=4)c32 | – | > 100 | > 100 | > 100 | > 100 | > 100 | > 100 | > 100 | > 100 | > 100 | – | – | – | – | – | – | – | – | – |
| CO[C@H](C(=O)[C@@H](O)[C@@H](C)O)[C@@H]1Cc2cc3cc(OC4CC(OC5CC(O)C(O)C(C)O5)C(O)C(C)O4)c(C)c(O)c3c(O)c2C(=O)[C@H]1OC1CC(OC2CC(OC3CC(C)(O)C(O)C(C)O3)C(O)C(C)O2)C(O)C(C)O1 (stereo partly specified) | – | – | – | – | – | – | – | – | – | – | 0.0395 µg/mL and 0.0243 µg/mL | 0.0272 µg/mL and 0.011 µg/mL | 0.0201 (≈ 0.0185 µM) | 0.000558 | 0.0389 µg/mL and 0.0236 µg/mL | 0.0235 µg/mL and 0.0192 µg/mL | – | – | – |
| COC(=O)C(Cc1nc2ccccc2[nH]c1=O)C(=O)C(=O)Nc1ccc([N+](=O)[O-])cc1[N+](=O)[O-] (stereo unspecified) | 33.2 | 50.6 | 36.8 | 33.9 | 25.5 | 35.9 | 42 | 32.4 | 32.1 | 64.1 | – | – | – | – | – | – | – | – | – |
| CCc1cc(CCC(=O)Nc2c(C)cccc2C)[nH]n1 | > 100 | > 100 | > 100 | > 100 | > 100 | > 100 | > 100 | > 100 | > 100 | > 100 | – | – | – | – | – | – | – | – | – |
| Nc1ccn(C2OC(COC(=O)C34CC5CC(CC(C5)C3)C4)C(O)C2O)c(=O)n1 (stereo unspecified) | > 100 | > 100 | > 100 | > 100 | – | > 100 | > 100 | > 100 | > 100 | > 100 | – | – | – | – | – | – | – | – | – |
| CN(C)C=C1C(Cl)=C(C=O)CC(C=O)=C1Cl | 28.7 | > 100 | – | 29.1 | 4.45 | 37.1 | 20.9 | 26.7 | 26.8 | 27.9 | – | – | – | – | – | – | – | – | – |
| Cc1cc(Cl)ccc1NC(=O)C(=O)C(C(=O)c1ccc2ccccc2c1)C1OC(=O)c2ccccc21 (stereo unspecified) | 22.2 | 37.4 | 9.53 | 29.7 | 19 | 26.3 | 30.4 | 34.3 | 18.1 | 25.5 | – | – | – | – | – | – | – | – | – |
| CCOC(=N)CC(=O)c1ccccc1 | > 100 | > 100 | > 100 | > 100 | > 100 | > 100 | > 100 | > 100 | > 100 | > 100 | – | – | – | – | – | – | – | – | – |
| CCCN(CCCC(NC(C)=O)C(=O)NCc1ccccc1)C(=O)NCCCl (stereo unspecified) | > 100 | > 100 | > 100 | > 100 | > 100 | > 100 | > 100 | > 100 | > 100 | > 100 | – | – | – | – | – | – | – | – | – |
| COc1cc(CNC2c3cc4c(cc3C(c3cc(OC)c(OC)c(OC)c3)[C@H]3C(=O)OCC23)OCO4)cc(OC)c1OC (stereo partly specified) | 13.1 | > 100 | – | > 100 | > 100 | 0.77 | > 100 | > 100 | > 100 | – | – | – | – | – | – | – | – | – | – |
| CSc1n[n+]2c(s1)SCCC2 | > 100 | > 100 | > 100 | > 100 | > 100 | > 100 | > 100 | > 100 | > 100 | > 100 | – | – | – | – | – | – | – | – | – |
| N#C/C(=C1\SC(N=Nc2ccccc2)C(=O)N1c1ccccc1)c1nc2ccccc2[nH]1 (stereo unspecified) | – | > 100 | 97.6 | > 100 | > 100 | > 100 | > 100 | > 100 | – | > 100 | – | – | – | – | – | – | – | – | – |
| CC(=O)[CH-]C(=O)c1ccccc1.CC(=O)[CH-]C(=O)c1ccccc1.CCOCC[O-].CCOCC[O-].[Ti+4] | 43.5 | 73.4 | – | 43.4 | 29.1 | – | – | 37.1 | – | > 100 | 18.4 µM | 20.6 µM | – | – | 31.9 µM | – | 18.9 | 16.7 | 12.2 |
